This is an account of results in ChEMBL document CHEMBL4428099, “Identification of indole scaffold-based dual inhibitors of NOD1 and NOD2” (Bioorg Med Chem, 2016).

As usually defined, the IC50 is the concentration that gives 50% inhibition.

Active and inactive are the calls of the source. No cut-off for these calls is given here.

Format in all cases: cell-based
Data set [1] is described as follows: Cytotoxicity against HEK-Blue cells assessed as residual metabolic activity up to 25 uM measured after 24 hrs by MTS assay relative to untreated control. As to conditions: human, read-out: Activity.
In data set [2] the target is T1, Nucleotide-binding oligomerization domain-containing protein 1 (Homo sapiens) (UniProt Q9Y239).
T1 sequence (whole entry): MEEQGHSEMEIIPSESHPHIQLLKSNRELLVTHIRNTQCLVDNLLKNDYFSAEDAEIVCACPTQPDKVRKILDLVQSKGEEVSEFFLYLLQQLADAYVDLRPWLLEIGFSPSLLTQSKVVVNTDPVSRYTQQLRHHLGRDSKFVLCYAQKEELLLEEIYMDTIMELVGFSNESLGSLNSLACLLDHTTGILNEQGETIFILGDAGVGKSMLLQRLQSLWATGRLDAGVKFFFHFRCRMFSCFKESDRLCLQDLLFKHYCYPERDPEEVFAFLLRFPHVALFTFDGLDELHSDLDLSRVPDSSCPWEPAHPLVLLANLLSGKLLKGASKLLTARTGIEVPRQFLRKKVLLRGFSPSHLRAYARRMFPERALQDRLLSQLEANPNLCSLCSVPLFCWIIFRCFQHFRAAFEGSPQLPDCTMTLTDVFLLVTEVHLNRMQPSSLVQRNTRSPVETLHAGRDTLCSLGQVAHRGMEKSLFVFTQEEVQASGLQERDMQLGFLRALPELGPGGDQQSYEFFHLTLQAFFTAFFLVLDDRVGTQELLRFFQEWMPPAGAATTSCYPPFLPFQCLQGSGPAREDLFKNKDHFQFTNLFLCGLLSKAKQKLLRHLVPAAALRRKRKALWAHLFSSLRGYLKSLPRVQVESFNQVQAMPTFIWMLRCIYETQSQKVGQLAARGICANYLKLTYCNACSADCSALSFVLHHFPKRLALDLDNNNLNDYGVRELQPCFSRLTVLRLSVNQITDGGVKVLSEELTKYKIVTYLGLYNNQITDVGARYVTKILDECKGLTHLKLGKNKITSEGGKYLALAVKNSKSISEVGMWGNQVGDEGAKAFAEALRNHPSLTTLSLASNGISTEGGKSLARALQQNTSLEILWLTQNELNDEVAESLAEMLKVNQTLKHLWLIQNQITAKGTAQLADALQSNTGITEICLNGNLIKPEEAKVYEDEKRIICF
The data set is described as follows: Inhibition of human NOD1 over-expressed in HEK-Blue cells assessed as inhibition of […] NF-kappaB transcriptional activity measured as residual activity at 25 uM preincubated for 1 hr followed by addition of C12-iE-DAP measured after 18 hrs by SEAP reporter gene assay relative to control. (In a reporter assay the amount or activity of a reporter protein is the signal.)

For data set [3], the target named is Nucleotide-binding oligomerization domain-containing protein 2 (Homo sapiens, UniProt Q9HC29). The data set is described as follows: Inhibition of human NOD2 over-expressed in HEK-Blue cells assessed as inhibition of […] NF-kappaB transcriptional activity preincubated for 1 hr followed by addition of C12-iE-DAP measured after 18 hrs by SEAP reporter gene assay.
Sequence of Nucleotide-binding oligomerization domain-containing protein 2 (Q9HC29 whole entry, the tested form may be a part): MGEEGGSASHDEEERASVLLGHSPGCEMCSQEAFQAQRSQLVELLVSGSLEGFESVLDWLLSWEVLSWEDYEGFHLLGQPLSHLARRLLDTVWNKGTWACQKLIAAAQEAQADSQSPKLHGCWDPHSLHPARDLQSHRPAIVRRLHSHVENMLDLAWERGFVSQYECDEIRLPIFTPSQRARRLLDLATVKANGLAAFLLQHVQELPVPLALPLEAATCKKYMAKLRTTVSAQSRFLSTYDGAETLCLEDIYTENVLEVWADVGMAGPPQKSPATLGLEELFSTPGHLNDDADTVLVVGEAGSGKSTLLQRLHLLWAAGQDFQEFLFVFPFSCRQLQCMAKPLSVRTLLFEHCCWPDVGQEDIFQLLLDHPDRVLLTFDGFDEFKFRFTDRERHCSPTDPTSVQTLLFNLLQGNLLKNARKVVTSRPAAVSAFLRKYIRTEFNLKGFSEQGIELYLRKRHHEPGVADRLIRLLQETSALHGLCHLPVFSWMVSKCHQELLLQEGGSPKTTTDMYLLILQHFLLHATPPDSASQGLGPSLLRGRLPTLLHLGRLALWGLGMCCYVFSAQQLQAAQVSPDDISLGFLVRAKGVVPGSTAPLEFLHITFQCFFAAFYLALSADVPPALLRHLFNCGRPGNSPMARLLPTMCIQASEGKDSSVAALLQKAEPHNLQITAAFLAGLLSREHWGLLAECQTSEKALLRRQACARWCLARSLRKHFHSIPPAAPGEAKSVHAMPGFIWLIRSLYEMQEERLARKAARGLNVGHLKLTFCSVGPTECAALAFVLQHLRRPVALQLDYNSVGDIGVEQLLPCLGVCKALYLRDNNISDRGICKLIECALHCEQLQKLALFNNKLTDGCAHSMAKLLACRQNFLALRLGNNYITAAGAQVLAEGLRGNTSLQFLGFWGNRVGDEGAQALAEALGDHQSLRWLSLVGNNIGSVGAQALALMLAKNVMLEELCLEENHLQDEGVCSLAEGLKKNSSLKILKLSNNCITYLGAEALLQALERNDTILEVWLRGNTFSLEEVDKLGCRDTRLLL

The target of data set [4] is T2, Nucleotide-binding oligomerization domain-containing protein 1 (Homo sapiens, UniProt Q9Y239).
T2 sequence (Q9Y239 whole entry): T1 sequence (whole entry)
The data set is described as follows: Inhibition of human NOD1 over-expressed in HEK-Blue cells assessed as inhibition of […] NF-kappaB transcriptional activity preincubated for 1 hr followed by addition of C12-iE-DAP measured after 18 hrs by SEAP reporter gene assay.

For the compound `Cc1ccc(S(=O)(=O)n2c(C(=O)O)cc3ccccc32)cc1`, the viability at 24 h in data set [1] is ≥ 80%.

As for `Cc1ccc(S(=O)(=O)n2c(C(=O)NN)cc3ccccc32)cc1`, the Activity in data set [2] is 68%. Besides, the viability at 24 h in data set [1] is ≥ 80%.

Consider `Cc1ccc(S(=O)(=O)N2C(=N)Cc3ccccc32)cc1`, for which the viability at 24 h in data set [1] is ≥ 80%.

For the compound `N=C1Cc2ccccc2N1Cc1ccc(Br)cc1`, the result in data set [2] was inactive. Moreover, the viability at 24 h in data set [1] was ≥ 80%.

Regarding `N=C1Cc2ccccc2N1Cc1ccc(C(F)(F)F)cc1`, the outcome in data set [2] was inactive. Besides, the viability at 24 h in data set [1] is ≥ 80%.

For `CCOC(=O)c1cc2ccccc2n1S(=O)(=O)c1ccc(C(F)(F)F)cc1`, the Activity in data set [2] is 37%. Moreover, the viability at 24 h in data set [1] is ≥ 80%.

Consider `CCOC(=O)c1cc2ccccc2n1C(=O)c1ccc(C)cc1`, for which the figures for the half-inhibitory concentration (IC50) in data set [3] and in data set [4] were 24.6 µM and 16 µM, respectively. For the same compound, the viability at 24 h in data set [1] was ≥ 80%.

Consider `CCOC(=O)c1cc2ccccc2n1Cc1ccc(F)cc1`, for which the Activity in data set [2] amounted to 53%. Besides, in data set [1], the viability at 24 h is ≥ 80%.

As to `CCOC(=O)c1cc2ccccc2n1Cc1ccc(Br)cc1`, the Activity in data set [2] turned out to be 45%. The viability at 24 h in data set [1] is ≥ 80%.

Regarding `CCOC(=O)c1cc2ccccc2n1S(=O)(=O)c1ccc(OC)cc1`, in data set [2], the Activity turned out to be 36%. Further, in data set [1], the viability at 24 h was ≥ 80%.

For `CCOC(=O)c1cc2ccccc2n1Cc1ccc(C(F)(F)F)cc1`, the Activity in data set [2] is 46%. Moreover, the viability at 24 h in data set [1] is ≥ 80%.

Consider `CCOC(=O)c1cc2ccccc2n1Cc1ccc(C2CC2)cc1`, for which the Activity in data set [2] was 39%. The viability at 24 h in data set [1] is ≥ 80%.

As to `N=C1Cc2ccccc2N1Cc1ccccc1`, the Activity in data set [2] turned out to be 72%. The viability at 24 h in data set [1] is ≥ 80%.

Regarding `CCOC(=O)c1cc2ccccc2n1S(=O)(=O)c1ccc(C)cc1`, the IC50 in data set [3] was found to be 6.45 µM; in data set [4], 5.74 µM. In addition, the Activity in data set [2] is 24%. Moreover, the viability at 24 h in data set [1] is ≥ 80%.

As to `CCOC(=O)c1cc2ccccc2n1Cc1ccccc1`, the Activity in data set [2] stood at 58%. The viability at 24 h in data set [1] is ≥ 80%.

Take `CCOC(=O)c1cc2ccccc2n1S(=O)(=O)c1ccc(F)cc1`: the IC50 in data set [3] was 12.6 µM; in data set [4], 9.22 µM. Besides, the Activity in data set [2] was 24%. The viability at 24 h in data set [1] was ≥ 80%.

Take `CC(C)c1ccc(CN2C(=N)Cc3ccccc32)cc1`: the outcome in data set [2] was inactive. The viability at 24 h in data set [1] is ≥ 80%.

Take `CC(C)(C)OC(=O)Nc1cc2ccccc2n1Cc1ccc(Cl)cc1`: the viability at 24 h in data set [1] is ≥ 80%.

As to `CCOC(=O)c1cc2ccccc2n1Cc1ccc(Cl)cc1`, the Activity in data set [2] is 29%. Further, the viability at 24 h in data set [1] is ≥ 80%.

For the compound `CCOC(=O)c1cc2ccccc2n1S(=O)(=O)c1ccc([N+](=O)[O-])cc1`, the half-maximal inhibitory concentration (IC50) is 16.9 µM in data set [3] and 15 µM in data set [4]. Besides, in data set [2], the Activity worked out at 27%. The viability at 24 h in data set [1] is ≥ 80%.

`O=C(O)c1cc2ccccc2n1Cc1ccc(Cl)cc1`: the viability at 24 h in data set [1] is ≥ 80%.

Turning to `Cc1ccc(S(=O)(=O)n2c(N)nc3ccccc32)cc1`, the 50% inhibitory concentration (IC50) in data set [3] came to 54.9 µM. Moreover, the Activity in data set [2] stood at 9%. The viability at 24 h in data set [1] was ≥ 80%.

On to `Cc1ccc(CN2C(=N)Cc3ccccc32)cc1`, for which the outcome in data set [2] was inactive. For the same compound, in data set [1], the viability at 24 h was ≥ 80%.

As to `N=C1Cc2ccccc2N1Cc1ccc(C2CC2)cc1`, the result in data set [2] was inactive. Also, in data set [1], the viability at 24 h was ≥ 80%.

For `Cc1ccc(S(=O)(=O)n2c(C(N)=O)cc3ccccc32)cc1`, the Activity in data set [2] was 76%. In addition, in data set [1], the viability at 24 h was ≥ 80%.

For the compound `CCOC(=O)c1cc2ccccc2n1Cc1ccc(C)cc1`, the IC50 was found to be 9.04 µM in data set [3] and 7.78 µM in data set [4]. Moreover, in data set [2], the Activity worked out at 24%. Further, the viability at 24 h in data set [1] was ≥ 80%.

For `CCOC(=O)c1cc2ccccc2n1S(=O)(=O)c1ccc(Cl)cc1`, the IC50 turned out to be 23.4 µM in data set [3] and 19.8 µM in data set [4]. Moreover, the Activity in data set [2] is 30%. The viability at 24 h in data set [1] is ≥ 80%.

For `CCOC(=O)c1cc2ccccc2n1Cc1ccc(C(C)C)cc1`, in data set [2], the Activity was determined as 42%. Further, the viability at 24 h in data set [1] is ≥ 80%.

As to `Cc1ccc(S(=O)(=O)n2c(NC(=O)OC(C)(C)C)cc3ccccc32)cc1`, in data set [1], the viability at 24 h is ≥ 80%.

As for `N=C1Cc2ccccc2N1Cc1ccc(Cl)cc1`, the results for the IC50 in data set [3] and in data set [4] were > 25 µM and 15.7 µM, respectively. For the same compound, the Activity in data set [2] worked out at 44%. In addition, the viability at 24 h in data set [1] was ≥ 80%.
